According to patent US9456589B2, “Elasmobranch-repelling compounds and methods of use” (priority 2005, dated 2016):
Where two headings read alike, the source gives them in different places.

Assays:
[1] = tested on: sharks (lemon, nurse, blacktip, tiger, blacknose pooled); test: Tonic immobility, Syringe 3/5/10 Assay, summary over species; assay type: in vivo
Procedure: (§1) One bioassay used to observe and measure flight response is the tonic immobility test. Tonic immobility is a state of paralysis that typically occurs when a shark is subject to inversion of its body along the longitudinal axis. This state is called “tonic,” and the shark can remain in this state for up to 15 minutes thereby allowing researchers to observe effects of chemical repellents. The “tonic” state of the shark is first established by releasing seawater in proximity to the “tonic” shark with the same delivery instrument and at the same distance as a “test” repellent compound will be released. Some controls are released with a high flow rate (30 mL/sec) in order to establish that sharks are not awakened by a jet of fluid over their noses. Once behavioral controls are established, a compound or composition that may have a repelling effect is delivered to the shark. If the compound or composition engenders a flight response, the shark will awaken from the tonic state and rapidly attempt to flee the delivered repellent. Using this tonic immobility bioassay researches can quantify the strength of a repellent effect.
(§2) In the tonic immobility studies disclosed herein, several different methods were employed for delivery of repelling compounds. A first method for delivery of chemical repellent in tonic immobility studies employed a “Syringe 3/5/10 Assay” method. The “Syringe 3/5/10 Assay” method is so named because a test repellent is delivered to a shark from a distance of about “3” inches with a bolus of about “5” mL with a response to the test repellent considered positive if the shark reacts with a change in behavior within less than about “10” seconds from the time of delivery.
(§3) The “3/5/10 Syringe Assay” as employed herein delivered a dose of 5-6 mL of a test chemical repellent from a syringe fixed with a needle having a gauge of about 22 from a distance at least 3 inches in front of a shark. Because the test chemical repellent was delivered at a distance from the shark's nares and mouth, a cloud of test chemical repellent was dispersed over the shark within the water column. The dispersed test repellent was subject to water current direction, dispersion and dilution. As a result, a flight response within 10 seconds was considered a positive repellency response. […] Time from delivery to response is related to the size of the bolus delivered from the syringe, distance of the shark from the syringe and water current.
(§4) In Syringe 3/5/10 Assays, 5-6 mL of 3-methylbutanal was delivered at least 3 inches in front of the shark's mouth. A cloud of the repellent dispersed over the shark within the water column. […] As noted above, because the dispersion of the chemical repellent upon delivery is affected by volume of repellent, water current, and other factors, the time between delivery and response was not correlatable with the potency of the repellent.

juvenile sharks = test: Initial tonic immobility assays, mouth delivery by micropipette or syringe; assay type: in vivo; details: introduced to the mouth using a micropipette or syringe
nurse sharks [2] = test: Tonic immobility, Micropipette Assay; assay type: in vivo, C. cirratum
Procedure: as §1
(§5) A fourth method of delivery was called the “Micropipette Assay” method of delivery. In this method, a very small dose (fraction of a mL) of a test substance was delivered directly into a shark's mouth. […] A response, such as a cough or other notable action of the shark, was usually noted when effective gustatory repellents were delivered directly into a shark's mouth while in tonic immobility.
The Micropipette Assay method has not proven to be a particularly effective method of assaying for a flight response in elasmobranchs. The Micropipette Assay method is, nevertheless, an excellent method for specifying that a gustatory response has occurred. It is effective for specifying a gustatory response because the micropipette delivery method allows direct delivery of an entire bolus of test substance into the mouth of the shark being tested. […]

nurse sharks [3] = test: Tonic immobility, Syringe 3/5/10 Assay; assay type: in vivo, C. cirratum; details: Table 24; nurse shark; syringe 3/5/10 delivery; 6 ml; mouth
[4] = tested on: juvenile lemon and nurse sharks; test: Tonic immobility, Micropipette Assay, summary over species; assay type: in vivo; details: for Micropipette Y (termination of tonic immobility), trials of trials: juvenile lemon and nurse sharks, oral dose
Procedure: as §1, §5
(§6) The Micropipette Assay method has not proven to be a particularly effective method of assaying for a flight response in elasmobranchs. The Micropipette Assay method is, nevertheless, an excellent method for specifying that a gustatory response has occurred. It is effective for specifying a gustatory response because the micropipette delivery method allows direct delivery of an entire bolus of test substance into the mouth of the shark being tested.
An oral dose of no more than 400 microliters was then delivered by micropipette into the mouth of a juvenile nurse shark. Tonic immobility was terminated. For each derivative of butyric acid and each naturally occurring acid listed in Table 9, a first micropipette assay was performed on a juvenile lemon shark with no more than 100 microliters of test acid in an oral dose. A second micropipette assay was then performed on a juvenile nurse shark with no more than 400 microliters of test acid in an oral dose. In each test, tonic immobility was terminated.
In a first set of studies on the effectiveness of carboxylic acids as elasmobranch repellents, each tested substance was subjected to the following protocol. […] An oral dose of no more than 400 microliters was then delivered by micropipette into the mouth of a juvenile nurse shark. Tonic immobility was terminated. […] The data evidences the gustatory repelling activity of carboxylic acids.

blacktip sharks = test: Tonic immobility, Syringe 3/5/10 Assay; assay type: in vivo, C. limbatus
Procedure: as §1, §2, §3
(§7) Lemon, nurse, blacktip and tiger sharks were placed in tonic immobility by inverting the shark's body along its longitudinal axis. […] The “tonic” state of each shark was first established by releasing a control of seawater in proximity to the shark with the same delivery instrument and at the same distance as the chemical repellent would later be delivered. In certain controls, sea water was released with a high flow rate (30 mL/sec) in order to establish that the sharks would not be awakened by a jet of fluid over their noses.
(§8) Once behavioral controls were established, the chemical repellent was delivered to the shark using the Hd Syringe Assay method, the Syringe 3/5/10 Assay method, the Bite Assay method or the Micropipette Assay method. […] If tonic immobility was terminated, the positive response was denoted as “Y.” If tonic immobility was not terminated but a behavior change within tonic immobility was noted, such as the opening of the mouth or a cough, the response was denoted as an “R” for reduced response. If no behavior change was observed, the negative response was denoted “N.”
as §4, with “repellent. […]” for “repellent.”

lemon sharks [5] = test: Tonic immobility, Hd Syringe Assay; assay type: in vivo, N. brevirostris; details: lemon sharks
Procedure: as §1, §7
Once behavioral controls were established, the chemical repellent was delivered to the shark using the Hd Syringe Assay method, the Syringe 3/5/10 Assay method, the Bite Assay method or the Micropipette Assay method. […]

[6] = tested on: sharks (lemon, nurse, tiger pooled); test: Tonic immobility, Hd Syringe Assay, summary over species; assay type: in vivo; details: species pooled
Procedure: as §1
In Hd-Syringe Assays, the 3-methylbutanal was delivered to the shark's mouth and nares using a 3 mL hypodermic syringe fitted with a 22 gauge needle. The needle was held within 3 inches of the shark's mouth and the test repellent was slowly released from the syringe with a very fine plume in the water column. Any response was denoted. If a response occurred during a measurable time after delivery of the test chemical, the time between delivery and response was noted. If a response occurred immediately or the response occurred before a measurable time could be established, no time to response was noted.

nurse sharks [7] = test: Tonic immobility, Hd Syringe Assay; assay type: in vivo, C. cirratum; details: juvenile nurse shark
Procedure: as §1
Lemon, nurse, blacktip and tiger sharks were placed in tonic immobility by inverting the shark's body along its longitudinal axis. […]

Caribbean reef sharks = test: Cloud dispersion assay (cloud - co2); assay type: in vivo, C. perezii; details: for Comments (effect on shark population): cloud, 500 mL
From the text: Another bioassay used to observe a flight response in sharks is a cloud dispersion assay on competitively feeding population of sharks. This assay is referred to as a “Cloud Dispersion Assay” or “Cloud Assay.” A pressurized fluid delivery system was designed to deliver repellent into large feeding populations of sharks. The repellent is released as a subsurface cloud, which follows the current. A 1 L plastic container containing the test chemical repellent solution is pressurized to approximately 20 psig with a battery compressor or hand pump. A globe valve is used to hold back the fluid. The fluid is delivered to the end of a long PVC pole using a Teflon tubing. This allows the operator to place the tip of the pole well into a population of feeding sharks. By actuating the small globe valve, a cloud of the chemical solution is released quickly and reliably into the feeding population. Controls are established using FD&C Red 40 dye and seawater, uncolored seawater, and air. These controls establish that sharks are not afraid to approach the delivery pole, nor are sharks deterred from feeding by the jet of control fluid or air.
Syringe 3/5/10, Hd Syringe and Micropipette assays were carried out as described in Examples 1 and 2.

lemon sharks [8] = test: Tonic immobility, Micropipette Assay; assay type: in vivo, N. brevirostris; details: juvenile lemon shark, micropipette
Procedure: as §1, §5, §6
Using a microliter syringe or microliter pipette, a bolus of test chemical can be directed precisely into one of the shark's nares, or its mouth. […] Olfactory repellents will terminate tonic immobility almost immediately when injected into a nare of the shark.
as §7, §8
Further because the Micropipette assays were often done serially on the same set of sharks, second and third doses of the repellent over time would be expected to evoke less of a reaction. Nevertheless, the small doses delivered to the shark in the Micropipette assay provide important data on whether a compound is a gustatory stimulant because the small dose may be delivered directly into the mouth of the shark. This eliminates any olfactory response that might be acting in concert with a gustatory response to terminate tonic immobility.

[9] = listed as crotonic acid solution

c1ccncc1 [Pyridine, pyridine]
Syringe 3/5/10 R (behavior response within tonic immobility), trials of trials [1]: 1/4 | Syringe 3/5/10 Y (termination of tonic immobility), trials of trials [1]: 3/4 | Syringe 3/5/10 R (behavior response within tonic immobility), trials of trials ([1]; listed as pyridine): one of four | Syringe 3/5/10 Y (termination of tonic immobility), trials of trials ([1]; listed as pyridine): three of four | result of initial tonic immobility assays (juvenile sharks): terminated tonic immobility | Micropipette assay outcome (nurse sharks [2]; nurse shark, about 500 microliters into the mouth): did not evoke a response

CC=CC(=O)O [crotonic acid solution (2-butenoic acid), 2-butenoic acid]
Syringe 3/5/10 N (no response), trials of trials [1]: 2/7 | Syringe 3/5/10 R (behavior response within tonic immobility), trials of trials [1]: 1/7 | Syringe 3/5/10 Y (termination of tonic immobility), trials of trials [1]: 4/7 | Syringe 3/5/10 N (no response), trials of trials [1, 9]: two of the seven | Syringe 3/5/10 R (behavior response within tonic immobility), trials of trials [1, 9]: one of the seven | Syringe 3/5/10 Y (termination of tonic immobility), trials of trials [1, 9]: four of the seven | T? (termination of tonic immobility) (nurse sharks [3]): Y and R | Micropipette Y (termination of tonic immobility), trials of trials [4]: 2/2 | screening result ([4]; lemon and nurse sharks): shark repelling compounds

O=C(O)CC(O)(CC(=O)O)C(=O)O [Citric acid 50% w/w, Citric acid]
T? (termination of tonic immobility) (nurse sharks [3]): R | T? (termination of tonic immobility) (blacktip sharks; Table 24, blacktip shark, syringe 3/5/10 delivery, 6 ml, mouth longline): Y | Hd Syringe assays terminating tonic immobility (lemon sharks [5]): four of four | Micropipette Y (termination of tonic immobility), trials of trials [4]: 2/2 | Hd-Syringe Y (termination of tonic immobility), trials of trials [6]: 4/4

Cc1c(N)c(=O)n(-c2ccccc2)n1C [4-aminoantipyrine]
Syringe 3/5/10 assays with no response (blacktip sharks; blacktip sharks): no response | Hd Syringe assays terminating tonic immobility (lemon sharks [5]): all assays terminated tonic immobility | Hd-Syringe Y (termination of tonic immobility), trials of trials [6]: terminated tonic immobility in all tests | Hd-Syringe Y (termination of tonic immobility), trials of trials ([6]; listed as 4-amino-antipyrine): five of five | Hd-Syringe Y (termination of tonic immobility), trials of trials ([6]; listed as 4-amino-antipyrine (metapirazone)): 5/5 | Hd Syringe assays terminating tonic immobility (nurse sharks [7]): terminated

Cc1cccnc1N [2-amino-3-picoline]
T? (Caribbean reef sharks; cloud - co2, 500 mL): Y | Comments (effect on shark population) (Caribbean reef sharks): population decreased | Comments (effect on shark population) (Caribbean reef sharks; listed as 2-amino-3-picoline 95% cut to 10% w/w with desalinated water): population decrease

CCCC(=O)O [n-Butyric Acid, n-butyric acid]
oral dose that terminated tonic immobility (lemon sharks [8]): no more than 100 microliters | oral dose that terminated tonic immobility (nurse sharks [2]; juvenile nurse shark, micropipette): no more than 400 microliters | Micropipette Y (termination of tonic immobility), trials of trials [4]: 2/2 | Micropipette Y (termination of tonic immobility), trials of trials ([4]; listed as butyric acid): termination of tonic immobility | mouth dose at which tonic immobility was terminated ([4]; juvenile lemon or nurse sharks): 100 µL
